From ChEMBL document CHEMBL1212695, “An allosteric potentiator of M4 mAChR modulates hippocampal synaptic transmission” (Nat Chem Biol, 2008)
Activity calls are given as the source filed them. The rule behind the calls is not given here.

Tests used:
[1] = biological target: T1, Muscarinic acetylcholine receptor M1 (Rattus norvegicus) (UniProt P08482); assay: Allosteric activation of rat recombinant muscarinic M1 receptor expressed in CHO cells assessed as potentiation of acetylcholine-induced calcium mobilization at 10 uM after 1 hr by fluorescence assay; format: functional, cell-based
T1 sequence (whole entry): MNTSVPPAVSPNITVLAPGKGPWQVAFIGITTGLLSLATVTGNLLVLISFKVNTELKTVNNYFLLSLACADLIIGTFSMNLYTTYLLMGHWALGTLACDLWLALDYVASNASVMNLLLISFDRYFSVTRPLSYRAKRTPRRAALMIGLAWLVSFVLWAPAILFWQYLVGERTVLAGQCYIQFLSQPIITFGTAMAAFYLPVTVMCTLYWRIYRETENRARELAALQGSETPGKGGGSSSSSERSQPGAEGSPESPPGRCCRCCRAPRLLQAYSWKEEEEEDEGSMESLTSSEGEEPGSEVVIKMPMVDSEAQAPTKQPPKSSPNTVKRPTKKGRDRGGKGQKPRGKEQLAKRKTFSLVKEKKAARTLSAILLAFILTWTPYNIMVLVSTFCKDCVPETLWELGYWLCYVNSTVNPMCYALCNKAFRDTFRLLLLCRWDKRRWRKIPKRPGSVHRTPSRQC

[2] = biological target: T2, Muscarinic acetylcholine receptor M4 (Mus musculus) (UniProt P32211); assay: Agonist activity at muscarinic M4 receptor in wild type mouse hippocampal CA1 pyramidal neuron assessed as reduction of inhibitory postsynaptic current amplitude at 2 uM by whole-cell electrophysiology relative to control; format: functional, tissue-based; conditions: Hippocampus
T2 sequence (whole entry): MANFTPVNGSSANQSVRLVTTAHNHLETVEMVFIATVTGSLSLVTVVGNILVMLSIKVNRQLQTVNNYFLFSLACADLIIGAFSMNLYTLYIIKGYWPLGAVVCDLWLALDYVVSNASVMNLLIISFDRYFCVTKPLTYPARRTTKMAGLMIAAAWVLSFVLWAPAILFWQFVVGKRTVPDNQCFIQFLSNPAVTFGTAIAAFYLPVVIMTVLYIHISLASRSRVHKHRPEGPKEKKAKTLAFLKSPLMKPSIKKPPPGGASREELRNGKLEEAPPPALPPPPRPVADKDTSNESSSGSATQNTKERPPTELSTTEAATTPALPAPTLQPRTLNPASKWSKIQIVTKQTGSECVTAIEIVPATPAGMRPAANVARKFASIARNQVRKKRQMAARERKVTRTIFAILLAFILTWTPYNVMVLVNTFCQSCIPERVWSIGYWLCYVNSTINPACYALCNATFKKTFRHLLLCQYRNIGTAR

[3] = biological target: T3, Muscarinic acetylcholine receptor M2 (Rattus norvegicus) (UniProt P10980); assay: Allosteric activation of rat recombinant muscarinic M2 receptor expressed in CHO cells assessed as potentiation of acetylcholine-induced calcium mobilization at 10 uM after 1 hr by fluorescence assay; format: functional, cell-based
T3 sequence (whole entry): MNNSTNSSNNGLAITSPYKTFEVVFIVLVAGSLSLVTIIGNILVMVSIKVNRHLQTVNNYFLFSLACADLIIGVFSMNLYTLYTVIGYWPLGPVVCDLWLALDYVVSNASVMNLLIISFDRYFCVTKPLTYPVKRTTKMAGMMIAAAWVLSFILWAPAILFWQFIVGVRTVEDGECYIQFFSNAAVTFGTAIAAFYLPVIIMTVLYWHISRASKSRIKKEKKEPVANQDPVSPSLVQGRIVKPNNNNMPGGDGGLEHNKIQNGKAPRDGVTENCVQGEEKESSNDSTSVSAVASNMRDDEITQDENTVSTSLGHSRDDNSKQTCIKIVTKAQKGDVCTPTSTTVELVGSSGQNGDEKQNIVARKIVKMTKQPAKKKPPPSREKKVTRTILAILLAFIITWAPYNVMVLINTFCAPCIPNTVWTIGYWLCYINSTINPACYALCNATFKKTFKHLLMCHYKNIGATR

[4] = biological target: Muscarinic acetylcholine receptor M3 (Rattus norvegicus) (UniProt P08483); assay: Allosteric activation of rat recombinant muscarinic M3 receptor expressed in CHO cells assessed as potentiation of acetylcholine-induced calcium mobilization at 10 uM after 1 hr by fluorescence assay; format: functional, cell-based
[5] = Agonist activity at muscarinic receptor in M4 receptor knock out mouse hippocampal CA1 pyramidal neuron assessed as reduction of excitatory postsynaptic current amplitude at 5 uM by whole-cell electrophysiology in presence of carbachol relative to control; format: functional; conditions: Hippocampus
[6] = biological target: T4, Muscarinic acetylcholine receptor M4 (Rattus norvegicus) (UniProt P08485); assay: Allosteric activation of rat recombinant muscarinic M4 receptor expressed in CHO cells assessed as fold decrease in acetylcholine Ki for displacement of [3H]NMS from active binding site after 2 hrs by microplate scintillation counting; format: cell-based
T4 sequence (whole entry): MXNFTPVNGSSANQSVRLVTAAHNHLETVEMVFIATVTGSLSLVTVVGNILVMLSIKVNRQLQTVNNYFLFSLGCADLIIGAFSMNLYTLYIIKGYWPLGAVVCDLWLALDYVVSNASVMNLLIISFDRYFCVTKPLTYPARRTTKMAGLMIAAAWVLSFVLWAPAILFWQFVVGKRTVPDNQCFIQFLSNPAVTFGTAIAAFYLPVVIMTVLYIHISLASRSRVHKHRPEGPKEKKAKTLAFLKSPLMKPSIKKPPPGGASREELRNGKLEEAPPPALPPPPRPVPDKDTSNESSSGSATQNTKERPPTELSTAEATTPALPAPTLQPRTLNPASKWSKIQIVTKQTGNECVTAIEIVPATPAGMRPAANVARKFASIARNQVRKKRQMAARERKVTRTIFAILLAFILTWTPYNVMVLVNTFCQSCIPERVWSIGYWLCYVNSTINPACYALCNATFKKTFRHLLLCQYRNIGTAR

[7] = biological target: T4, Muscarinic acetylcholine receptor M4 (Rattus norvegicus); assay: Allosteric activation of rat recombinant muscarinic M4 receptor expressed in CHO cells assessed as potentiation of acetylcholine-induced increase in [35S]GTPgammaS binding at 10 um after 1 hr by equilibrium binding assay; format: functional, cell-based
[8] = biological target: T2, Muscarinic acetylcholine receptor M4 (Mus musculus); assay: Agonist activity at muscarinic M4 receptor in wild type mouse hippocampal CA1 pyramidal neuron assessed as reduction of excitatory postsynaptic current at 2 uM by whole-cell electrophysiology relative to control; format: functional, tissue-based; conditions: Hippocampus
[9] = biological target: T4, Muscarinic acetylcholine receptor M4 (Rattus norvegicus); assay: Displacement of [3H]NMS from rat recombinant muscarinic M4 receptor expressed in CHO cells up to 30 uM after 2 hrs by microplate scintillation counting; format: cell-based
[10] = biological target: T4, Muscarinic acetylcholine receptor M4 (Rattus norvegicus); assay: Agonist activity at muscarinic M4 receptor in Sprague-Dawley rat hippocampal CA1 pyramidal neuron assessed as increase in carbachol-induced reduction in excitatory postsynaptic current at 10 uM by whole-cell electrophysiology relative to control; format: functional, tissue-based; set-up: scale not given: the % may be the effect or the level left; conditions: Hippocampus
[11] = biological target: Muscarinic acetylcholine receptor M3 (Rattus norvegicus) (UniProt P08483); assay: Displacement of [3H]NMS from rat recombinant muscarinic M3 receptor expressed in CHO cells after 2 hrs by microplate scintillation counting; format: cell-based
[12] = biological target: T4, Muscarinic acetylcholine receptor M4 (Rattus norvegicus); assay: Allosteric activation of rat recombinant muscarinic M4 receptor expressed in CHO cells assessed as […] in acetylcholine EC50 for induction of calcium mobilization at 10 uM after 1 hr by fluorescence assay; format: functional, cell-based
[13] = biological target: T4, Muscarinic acetylcholine receptor M4 (Rattus norvegicus); assay: Agonist activity at muscarinic M4 receptor in Sprague-Dawley rat hippocampal CA1 pyramidal neuron assessed as reversible inhibition of excitatory postsynaptic current by whole-cell electrophysiology; format: functional, tissue-based; conditions: Hippocampus
[14] = test system: CHO; assay: Agonist activity at P2Y1 receptor in CHO cells assessed as induction of calcium mobilization at 10 uM after 1 hr by fluorescence assay; format: functional, cell-based; conditions: Cricetulus griseus

Muscarinic acetylcholine receptor M3 (Rattus norvegicus), sequence (P08483 whole entry, looked up): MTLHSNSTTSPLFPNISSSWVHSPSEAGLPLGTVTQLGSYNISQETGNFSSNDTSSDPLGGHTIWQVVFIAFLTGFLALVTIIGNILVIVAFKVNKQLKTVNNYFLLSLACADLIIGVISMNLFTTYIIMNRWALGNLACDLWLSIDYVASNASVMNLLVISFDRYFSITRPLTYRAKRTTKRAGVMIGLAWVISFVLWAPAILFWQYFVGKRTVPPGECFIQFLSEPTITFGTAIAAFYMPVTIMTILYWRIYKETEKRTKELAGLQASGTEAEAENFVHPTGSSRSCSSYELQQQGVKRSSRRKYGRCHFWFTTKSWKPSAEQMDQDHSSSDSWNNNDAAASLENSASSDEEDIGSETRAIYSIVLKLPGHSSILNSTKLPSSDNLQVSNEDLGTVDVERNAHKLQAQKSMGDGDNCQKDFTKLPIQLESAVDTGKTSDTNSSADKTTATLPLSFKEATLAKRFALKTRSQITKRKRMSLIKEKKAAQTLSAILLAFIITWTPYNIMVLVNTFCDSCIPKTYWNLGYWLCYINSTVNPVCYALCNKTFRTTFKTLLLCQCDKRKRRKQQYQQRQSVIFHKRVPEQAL

With `Cc1cc(C)c2c(N)c(C(=O)NCc3ccc(Cl)cc3)sc2n1` the Activity [1] was “inactive”, the inhibition [2] was 56% and the Activity [3] was “inactive”. The Activity [4] was “inactive”, the inhibition at 5 µM [5] was 77.5% and the Activity [6] was “Dose-dependent effect”. For the same compound, the Activity [7] was 43%, the inhibition [8] was 53.7% and the Activity [9] was “inactive”. The Activity [10] was 42.7%, the Activity [11] was “inactive” and the fold change (FC) [12] was 47. For the same compound, the Activity [13] was “Dose-dependent effect” and the Activity [14] was “inactive”.
